Entries after “also recorded” stand apart in the source; their conditions may differ.
Assays:
[1] = tested on: 3-NP induced striatal lesions in R6/2 mice; experiment: 3-Nitropropionic acid (3-NP) striatal toxicity in R6/2 mice; assay type: in vivo, mouse
Experimental: 3-Nitropropionic Acid Administration: At six weeks, groups of 10 R6/2 mice were treated with daily 1.2 g/kg sodium butyrate or PBS via intraperitoneal injections for two weeks. At the start of week two, 3-nitropropionic acid (3-NP) (Sigma, St. Louis, Mo.) was dissolved in PBS (pH adjusted to 7.4), made fresh daily, and injected intraperitoneally 9 times at 12 hrs intervals (75 mg/kg) in R6/2 mice. The mice were euthanized 8-10 hrs after the last 3-NP injection, deeply anesthetized and transcardially perfused with buffered 4% paraformaldehyde and processed for histopathologic evaluation. Glycerol cryoprotected brains were frozen sectioned at 50 Êm, stained with cresyl violet, and quantitative analysis of lesion volumes was performed in serial sections as described below.
Stereology/Quantitation: Serial-cut coronal tissue-sections beginning from the most rostral segment of the neostriatum to the level of the anterior commissure (Inter aural 5.34 mm/Bregma 1.54 mm to Inter aural 3.7 mm/Bregma −0.10 mm), were used for huntingtin aggregate analysis. Unbiased stereological counts of huntingtin-positive aggregates ([…]) were obtained from the neostriatum in 10 mice each from sodium butyrate-treated (1.2 g/kg) and PBS-treated R6/2 mice at 90 days using Neurolucida Stereo Investigator software (Microbrightfield, Colchester, Vt.). The total areas of the rostral neostriatum were defined in serial sections in which counting frames were randomly sampled. The optical dissector method was employed estimating the number of huntingtin-positive aggregates. Striatal neuron areas were analyzed by microscopic videocapture using a Windows-based image analysis system for area measurement (Optimas, Bioscan Incorporated, Edmonds, Wash.). The software automatically identifies and measures profiles. All computer identified cell profiles were manually verified as neurons and exported to Microsoft Excel. Cross-sectional areas were analyzed using Statview.

[2] = tested on: huntingtin-positive aggregates; experiment: Huntingtin aggregate stereology and ubiquitin inclusions in neostriatum; assay type: in vivo, mouse; conditions: 1.2 g/kg/d i.p. from 21 days; at 90 days; vs PBS-treated R6/2
Experimental: Neuropathological Evaluation of Sodium Butyrate Treatment: Beginning at 21 days, R6/2 transgenic mice and wild-type littermate control mice were treated daily with the most optimal dose of sodium butyrate (1.2 g/kg), as determined by survival studies, or PBS intraperitoneal injections. Groups of 10 animals from each treatment paradigm were deeply anesthetized and transcardially perfused with 4% buffered paraformaldehyde at 90 days of age. Forty mice were used for neuropathological analysis, as previously described (Ferrante et al., 2002). […]
Stereology/Quantitation: Serial-cut coronal tissue-sections beginning from the most rostral segment of the neostriatum to the level of the anterior commissure (Inter aural 5.34 mm/Bregma 1.54 mm to Inter aural 3.7 mm/Bregma −0.10 mm), were used for huntingtin aggregate analysis. […] Striatal neuron areas were analyzed by microscopic videocapture using a Windows-based image analysis system for area measurement (Optimas, Bioscan Incorporated, Edmonds, Wash.). […] Cross-sectional areas were analyzed using Statview.

## CCCC(=O)[O-].[Na+] [sodium butyrate]
[1]; 1.2 g/kg/d i.p. two weeks, 3-NP in second week, 3-NP/PBS: seven of ten
  mice with bilateral striatal lesions: two of ten
[1]; 1.2 g/kg/d i.p. two weeks, 3-NP in second week, vs 3-NP and PBS-treated R6/2
  neuroprotection from 3-NP striatal damage: prevented 3-NP striatal-induced damage; also recorded: marked neuroprotection; also recorded: nearly complete protection
[1]; 1.2 g/kg/d i.p., vs 3-NP/PBS-treated R6/2 mice
  reduction in lesion volume: 73.3%
[2]
  huntingtin-positive striatal aggregates or ubiquitin-positive inclusions: no significant differences; also recorded: no significant reduction

Reference: US20060069157A1, “Method of ameliorating or abrogating the effects of a neurodegenerative disorder, such as Huntington's disease, by sodium butyrate chemotherapy” (U.S. DEPARTMENT OF VETERANS AFFAIRS, priority 2004, published 2006)
